Reference: article PMC8286840, “Identifying SARS-CoV-2 antiviral compounds by screening for small molecule inhibitors of Nsp3 papain-like protease” (Biochemical Journal, 2021)
Where a name gives a salt, the structure may show the parent alone. Read-outs that look alike come from different tables or passages of the source.

Tests used:
[1] = target: T1, SARS-CoV-2 PLpro (nsp3 1564–1878) (Severe acute respiratory syndrome coronavirus 2, UniProt P0DTD1); assay: biochemical; set-up: FRET-quenched peptide (Pro3) cleavage by PLpro, 10 min pre-incubation, slope over 20 min, normalised to no-compound control; conditions: low concentration screen, read-out: % of control remaining
[2] = target: T1, SARS-CoV-2 PLpro (nsp3 1564–1878); assay: biochemical; set-up: FRET-quenched peptide (Pro3) cleavage by PLpro, 10 min pre-incubation, slope over 20 min, normalised to no-compound control; conditions: high concentration screen, read-out: % of control remaining

Fc1ccc(-c2cncc(CN3CCN(c4cccc5c4OCCO5)CC3)c2)cc1 [Adoprazine] gave a remaining activity at 1.25 µM ([1]; Well no.=8443) of 100% and a remaining activity at 3.75 µM ([2]; Well no.=8443) of 98.5%.

In the case of O=C(C[S+]([O-])C(c1ccccc1)c1ccccc1)NO (stereo not drawn) [Adrafinil], the remaining activity at 1.25 µM ([1]; Well no.=6233) is reported as 102% and the remaining activity at 3.75 µM ([2]; Well no.=6233) is reported as 94.6%.

CNCC(=O)c1ccc(O)c(O)c1 [Adrenalone (hydrochloride)] was tested, and the remaining activity at 1.25 µM ([1]; Well no.=7433) was 103% and the remaining activity at 3.75 µM ([2]; Well no.=7433) was 103%.

CNCC(=O)c1ccc(O)c(O)c1 [Adrenalone HCl] was tested, and the remaining activity at 1.25 µM ([1]; Well no.=5034) was 94.7% and the remaining activity at 3.75 µM ([2]; Well no.=5034) was 94.4%.

CCCCC/C=C/C/C=C/C/C=C/C/C=C/CCCCCC(=O)O [Adrenic acid (22:4 n-6)] was tested, and the remaining activity at 1.25 µM ([1]; Well no.=4253) was 105% and the remaining activity at 3.75 µM ([2]; Well no.=4253) was 98.5%.

In the case of N=C(N)NCCCCN [Agmatine (sulfate)], the remaining activity at 1.25 µM ([1]; Well no.=7803) is reported as 104% and the remaining activity at 3.75 µM ([2]; Well no.=7803) is reported as 106%.

With N=C(N)NCCCCN [Agmatine sulfate] the remaining activity at 1.25 µM ([1]; Well no.=261) was 93.6% and the remaining activity at 3.75 µM ([2]; Well no.=261) was 96.2%.

Work on COc1ccc2cccc(CCNC(C)=O)c2c1 [Agomelatine] yielded a remaining activity at 1.25 µM ([1]; Well no.=5143) of 100%, a remaining activity at 1.25 µM ([1]; Well no.=7340) of 99.9% and a remaining activity at 3.75 µM ([2]; Well no.=5143) of 100%. The remaining activity at 3.75 µM ([2]; Well no.=7340) was 102%.

Work on CC1=C[C@@H]2c3cccc4[nH]cc(c34)C[C@H]2N(C)C1 [Agroclavine] yielded a remaining activity at 1.25 µM ([1]; Well no.=210) of 94.3% and a remaining activity at 3.75 µM ([2]; Well no.=210) of 93.5%.

Compound CC[C@H]1[C@@H]2C[C@H]3[C@@H]4N(C)c5ccccc5[C@]45C[C@@H]([C@H]2[C@H]5O)N3[C@@H]1O [Ajmaline] has a remaining activity at 1.25 µM ([1]; Well no.=3437) of 98.9% and a remaining activity at 3.75 µM ([2]; Well no.=3437) of 98.2%.

With CC[n+]1c(/C=C/N(C)c2ccccc2)n(-c2ccccc2)c2ccc(-c3nc4ccccc4s3)cc21 [Akt Inhibitor IV] the remaining activity at 1.25 µM ([1]; Well no.=2311) was 102% and the remaining activity at 3.75 µM ([2]; Well no.=2311) was 101%.

For CCN(CC)CCCCN1c2ccccc2Oc2ccc(Cl)cc21 [Akt Inhibitor X], the remaining activity at 1.25 µM ([1]; Well no.=2317) was 101% and the remaining activity at 3.75 µM ([2]; Well no.=2317) was 102%.

O=c1[nH]c2ccccc2n1C1CCN(Cc2ccc(-c3[nH]c4cc5ncnc5cc4nc3-c3ccccc3)cc2)CC1 [Akt-I-1,2] gave a remaining activity at 1.25 µM ([1]; Well no.=2755) of 101% and a remaining activity at 3.75 µM ([2]; Well no.=2755) of 98.5%.

CN(C)CC(C)(C)CNc1nn2c(-c3ccccc3)nnc2cc1C1CCC1 [Akt-I-1] gave a remaining activity at 1.25 µM ([1]; Well no.=2707) of 107% and a remaining activity at 3.75 µM ([2]; Well no.=2707) of 106%.

In the case of CC(N)C(=O)OC(C)(C)Cc1ccc(Cl)cc1 (stereo not drawn) [Alaproclate hydrochloride], the remaining activity at 1.25 µM ([1]; Well no.=208) is reported as 102% and the remaining activity at 3.75 µM ([2]; Well no.=208) is reported as 102%.

For CCNC(=O)[C@@H]1CCCN1C(=O)[C@H](CCCN=C(N)N)NC(=O)[C@H](CC(C)C)NC(=O)[C@@H](C)NC(=O)[C@H](Cc1ccc(O)cc1)NC(=O)[C@H](CO)NC(=O)[C@H](Cc1c[nH]c2ccccc12)NC(=O)[C@H](Cc1cnc[nH]1)NC(=O)[C@@H]1CCC(=O)N1 [Alarelin (Acetate)], the remaining activity at 1.25 µM ([1]; Well no.=8383) was 98.8% and the remaining activity at 3.75 µM ([2]; Well no.=8383) was 97%.

In the case of CCCSc1ccc2[nH]c(NC(=O)OC)nc2c1 [Albendazole], the remaining activity at 1.25 µM ([1]; Well no.=2083) is reported as 103% and the remaining activity at 3.75 µM ([2]; Well no.=2083) is reported as 105%.

Compound CN1CCC(=C2c3ccccc3CCn3c(C=O)cnc32)CC1 [Alcaftadine] has a remaining activity at 1.25 µM ([1]; Well no.=6573) of 94.6% and a remaining activity at 3.75 µM ([2]; Well no.=6573) of 91.1%.

O=C(NCc1ccc2c(c1)OCO2)c1c(Cl)cccc1Cl [Alda-1] gave a remaining activity at 1.25 µM ([1]; Well no.=5935) of 101% and a remaining activity at 3.75 µM ([2]; Well no.=5935) of 99.3%.

NCCCC(O)(P(=O)(O)O)P(=O)(O)O [Alendronate] was tested, and the remaining activity at 1.25 µM ([1]; Well no.=2079) was 105% and the remaining activity at 3.75 µM ([2]; Well no.=2079) was 104%.

C=C1/C(=C\C=C2/CCC[C@]3(C)[C@@H]([C@H](C)CCCC(C)C)CC[C@@H]23)C[C@@H](O)C[C@@H]1O [Alfacalcidol] was tested, and the remaining activity at 1.25 µM ([1]; Well no.=1854) was 96.4% and the remaining activity at 3.75 µM ([2]; Well no.=1854) was 99.8%.

Work on COc1cc2nc(N(C)CCCNC(=O)C3CCCO3)nc(N)c2cc1OC (stereo not drawn) [Alfuzosin] yielded a remaining activity at 1.25 µM ([1]; Well no.=1809) of 98.4%, a remaining activity at 1.25 µM ([1]; Well no.=6749) of 100% and a remaining activity at 3.75 µM ([2]; Well no.=1809) of 97.8%. It also gave a remaining activity at 3.75 µM ([2]; Well no.=6749) of 92.3%.

C=CCc1cc(OC)c(O)c(C(=O)NCCO)c1 [Alibendol] showed a remaining activity at 1.25 µM ([1]; Well no.=5002) of 101% and a remaining activity at 3.75 µM ([2]; Well no.=5002) of 94.9%.

COc1cc(Nc2ncc3c(n2)-c2ccc(Cl)cc2C(c2c(F)cccc2OC)=NC3)ccc1C(=O)O [Alisertib] showed a remaining activity at 1.25 µM ([1]; Well no.=6164) of 103% and a remaining activity at 3.75 µM ([2]; Well no.=6164) of 103%.

For COCCCOc1cc(C[C@@H](C[C@H](N)[C@@H](O)C[C@H](C(=O)NCC(C)(C)C(N)=O)C(C)C)C(C)C)ccc1OC [Aliskiren hemifumarate], the remaining activity at 1.25 µM ([1]; Well no.=5148) was 107% and the remaining activity at 3.75 µM ([2]; Well no.=5148) was 104%.

Work on O=C1c2ccccc2C(=O)c2c1ccc(O)c2O [Alizarin] yielded a remaining activity at 1.25 µM ([1]; Well no.=5284) of 94.6% and a remaining activity at 3.75 µM ([2]; Well no.=5284) of 95.1%.

Work on CC1=C(/C=C/C(C)=C/C=C/C(C)=C/C=O)C(C)(C)CCC1 [All-trans-retinal] yielded a remaining activity at 1.25 µM ([1]; Well no.=7443) of 102% and a remaining activity at 3.75 µM ([2]; Well no.=7443) of 102%.

In the case of NC(=O)NC1NC(=O)NC1=O (stereo not drawn) [Allantoin], the remaining activity at 1.25 µM ([1]; Well no.=6631) is reported as 104%, the remaining activity at 1.25 µM ([1]; Well no.=8145) is reported as 106% and the remaining activity at 3.75 µM ([2]; Well no.=6631) is reported as 106%. The remaining activity at 3.75 µM ([2]; Well no.=8145) was 97.6%.

For CC(=O)[C@H]1CC[C@H]2[C@@H]3CC[C@H]4C[C@H](O)CC[C@]4(C)[C@H]3CC[C@]12C [Allopregnanolone], the remaining activity at 1.25 µM ([1]; Well no.=6197) was 105% and the remaining activity at 3.75 µM ([2]; Well no.=6197) was 107%.

Oc1ncnc2[nH]ncc12 [Allopurinol] gave a remaining activity at 1.25 µM ([1]; Well no.=102) of 106%, a remaining activity at 1.25 µM ([1]; Well no.=2077) of 104% and a remaining activity at 3.75 µM ([2]; Well no.=102) of 105%. For the same compound, the remaining activity at 3.75 µM ([2]; Well no.=2077) was 104%.

In the case of O=c1[nH]c(=O)c2nc3ccccc3nc2[nH]1 [Alloxazine], the remaining activity at 1.25 µM ([1]; Well no.=354) is reported as 90.3% and the remaining activity at 3.75 µM ([2]; Well no.=354) is reported as 88.5%.

C=CCNC(N)=S [Allylthiourea] gave a remaining activity at 1.25 µM ([1]; Well no.=5076) of 106% and a remaining activity at 3.75 µM ([2]; Well no.=5076) of 106%.

In the case of CN(C)CCc1c[nH]c2ccc(CS(=O)(=O)N3CCCC3)cc12 [Almotriptan (malate)], the remaining activity at 1.25 µM ([1]; Well no.=6271) is reported as 106% and the remaining activity at 3.75 µM ([2]; Well no.=6271) is reported as 106%.

In the case of O=C1c2cccc(O)c2C(=O)c2c(O)cc(CO)cc21 [Aloe-emodine], the remaining activity at 1.25 µM ([1]; Well no.=3156) is reported as 105% and the remaining activity at 3.75 µM ([2]; Well no.=3156) is reported as 102%.

Work on Cn1c(=O)cc(N2CCC[C@@H](N)C2)n(Cc2ccccc2C#N)c1=O [Alogliptin (SYR-322)] yielded a remaining activity at 1.25 µM ([1]; Well no.=5179) of 104% and a remaining activity at 3.75 µM ([2]; Well no.=5179) of 97.5%.
